Experimental data from patent US11484032B2, “Compositions for inhibition of insect sensing” (Vanderbilt University, priority 2011, dated 2022).

Legend:
AgOrco+AgOR65 = biological target: T1, AgOrco+AgOR65 (Anopheles gambiae, UniProt Q7QCC7); assay: Ca2+ imaging, HEK cells expressing AgOrco+AgOR65; format: cell-based; conditions: heteromeric OR channels AgOrco+AgOR65; read-out: EC50
T1 construct: expressed in transfected cells
T1 sequence (Q7QCC7 1-478): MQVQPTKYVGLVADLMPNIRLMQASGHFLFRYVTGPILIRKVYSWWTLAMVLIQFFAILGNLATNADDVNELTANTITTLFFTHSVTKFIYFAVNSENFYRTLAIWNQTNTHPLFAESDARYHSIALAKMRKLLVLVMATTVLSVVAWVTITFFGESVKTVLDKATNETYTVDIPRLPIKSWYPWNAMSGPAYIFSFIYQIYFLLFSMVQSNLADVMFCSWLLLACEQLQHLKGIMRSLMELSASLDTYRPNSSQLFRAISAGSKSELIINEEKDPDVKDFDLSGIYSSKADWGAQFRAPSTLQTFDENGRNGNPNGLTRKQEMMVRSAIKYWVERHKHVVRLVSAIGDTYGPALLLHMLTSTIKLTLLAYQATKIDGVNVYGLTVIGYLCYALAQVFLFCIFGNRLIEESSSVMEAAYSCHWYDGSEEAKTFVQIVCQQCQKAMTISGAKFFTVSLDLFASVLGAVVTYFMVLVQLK
From the text: For transient transfections, ORs were cloned into pCl (Promega) and transfected into Flp-In™ T-REx™293 cell lines (Invitrogen) with Fu GENE6 (Roche). For the creation of stable cell lines, a cell culture expression vector capable of expressing Orco in conjunction with a conventional OR, pcDNA5/FRT/TO (Invitrogen) was modified to create two individual expression cassettes each under the control of a separate CMV/Tet02 promoter and a BGH poly-adenylation signal. Cells (as above) were transfected with the modified pcDNA5 plasmid along with POG44 (a Flp recombinase expression plasmid) to facilitate site-specific recombination. Stable cell lines were selected using Hygromycin B (Invitrogen). Cells were maintained in DMEM (Invitrogen) supplemented with 10% Tetracycline-free FBS (HyClone) and 15 ng/ml Blasticidin. For fluorometric Ca2+ measurements, stable lines expressing ORs of interest were seeded at 20,000 cells/well in black wall, poly-lysine coated 384-well cell culture plates (Greiner) and treated with […] tetracycline (Sigma) overnight to induce OR expression. Cells were dye-loaded with 1.8 uM Fluo-4 AM (Molecular Probes), 2.5 mM Probenecid (Molecular Probes) in assay buffer (20 mM HEPES, IX HBSS) for 45 minutes at 37° C. in 5% CO2 prior to each assay. Ca^2+ mobilization was assayed in an FDSS6000 (Hamamatsu). Baseline readings were taken for 20 s before automated addition of compound previously diluted in DMSO and assay buffer. Ratios were described as Maximum/Minimum response and each response was normalized to the maximum responder.
For VUAA0, a single methyl from the para position of the aniline ring (compound VUAA0, FIG. 44) in the VUAA1 structure was removed. […] In VUAA0.5, unsaturation was introduced at the para position of the aniline ring (VUAA0.5, FIG. 44). […] In VUAA2, the ethyl group of the aniline ring in VUAA1 was replaced with an isopropyl group (VUAA2, FIG. 44).

[1] = biological target: T2, rat transient receptor potential vanilloid 1 (rTRPV1) (Rattus norvegicus, UniProt O35433); assay: Whole-cell patch clamp, HEK cells stably expressing rTRPV1; format: cell-based
T2 construct: expressed in transfected cells
T2 sequence (O35433 whole entry): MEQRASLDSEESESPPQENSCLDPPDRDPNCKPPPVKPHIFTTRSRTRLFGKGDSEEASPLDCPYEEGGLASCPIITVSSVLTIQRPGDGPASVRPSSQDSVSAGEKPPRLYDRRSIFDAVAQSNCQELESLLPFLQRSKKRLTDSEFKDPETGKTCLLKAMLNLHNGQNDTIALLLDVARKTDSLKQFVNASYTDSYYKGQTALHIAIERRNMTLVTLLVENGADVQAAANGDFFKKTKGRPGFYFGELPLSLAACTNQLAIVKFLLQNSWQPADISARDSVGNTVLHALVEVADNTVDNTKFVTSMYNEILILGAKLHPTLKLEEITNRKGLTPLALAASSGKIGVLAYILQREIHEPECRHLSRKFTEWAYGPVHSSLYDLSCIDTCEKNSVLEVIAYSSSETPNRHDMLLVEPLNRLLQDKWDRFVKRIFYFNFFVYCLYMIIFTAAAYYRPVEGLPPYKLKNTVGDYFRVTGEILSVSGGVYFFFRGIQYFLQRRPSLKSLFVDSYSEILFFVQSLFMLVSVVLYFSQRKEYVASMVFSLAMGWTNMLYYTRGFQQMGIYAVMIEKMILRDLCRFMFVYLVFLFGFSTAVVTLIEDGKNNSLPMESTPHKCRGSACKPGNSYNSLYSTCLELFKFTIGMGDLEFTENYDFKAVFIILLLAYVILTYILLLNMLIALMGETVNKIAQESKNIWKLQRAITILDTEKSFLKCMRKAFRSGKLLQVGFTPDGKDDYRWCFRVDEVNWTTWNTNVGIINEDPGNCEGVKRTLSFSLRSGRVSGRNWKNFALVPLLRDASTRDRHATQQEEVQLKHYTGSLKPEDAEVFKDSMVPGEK

[2] = tested on: CO2 sensitive CpA neuron (does not express AgORco); assay: Single sensillum recording, capitate peg sensilla, CpA neuron; format: in vivo, Anopheles gambiae; conditions: CO2 pulse at completion of assay
Procedure: Single sensillum recordings were performed on 4-7 day old, non-bloodfed Anopheles gambiae females maintained on 10% sucrose and a 12/12 light dark cycle. Legs, wings and antennae were removed from cold-anesthetized females that were then restrained on double-stick tape with thread. A glass reference electrode filled with Sensillar lymph ringers (SLR)(Xu, 2005) was placed in the eye and the recording electrode filled with DMSO or VUAA1 diluted in SLR was used to puncture sensilla at their base. Responses were recorded and digitized using a Syntech IDAC-4 and analyzed with AutoSpike software (Syntech). New glass recording pipettes were used for every recording. Data was sampled at 12 kHz.
The inventors next performed single unit, extracellular electrophysiological recordings on adult female An. gambiae to determine whether VUAA1 could activate AgORco-expressing odorant receptor neurons (ORNs) in vivo. ORNs, which express AgORco and a conventional OR are enclosed within the hair-like sensilla present on olfactory tissues. […] CpA is clearly distinguished from CpB/C by its large action potential amplitude. The action potential amplitudes of CpB and CpC are much smaller and in some preparations indistinguishable from each other; as a result, the spike activity of CpB and CpC neurons were binned for data analysis. […]

[3] = tested on: Un-transfected HEK293 cells; assay: Whole-cell patch clamp, un-transfected HEK293 control cells; format: cell-based, human
Procedure: Currents from OR-expressing HEK293 cells were amplified with an Axopatch 200b Amplifier (Axon Instruments) and digitized through a Digidata 1322A (Axon Instruments). Electrophysiological data was recorded and analyzed using pCLAMP 10 (Axon Instruments). Electrodes were fabricated from quartz tubing (Sutter Instruments) and pulled to 4-6 MiΩ for whole cell recording. Electrodes were filled with internal solution (120 mM KCl, 30 mM D-glucose, 10 mM HEPES, 2 mM MgCl2, 1.1 mM EGTA, and 0.1 CaCl2) (pH 7.35, 280 mOsm). External (bath) solution contained 130 mM NaCl, 34 mM D-glucose, 10 mM HEPES, 1.5 mM CaCl2), 1.3 mM KH2PO4, and 0.5 MgSO4 (pH 7.35, 300 mOsm). Compounds were diluted in external solution and locally perfused to the recording cell using Perfusion Pencil (Automate Scientific) and controlled by a ValveLink 8.2 controller (Automate Scientific). Whole cell recordings were sampled at 10 kHz and filtered at 5 kHz. Outside-out patches were obtained using 10-15MΩ electrodes pulled from standard glass capillaries (World Precision Instruments) and fire-polished with an MF-830 micro forge (Narishige). Single channel recordings were sampled at 20 kHz. Recordings were reduced to 1 kHz and low-pass filtered at 500 Hz for display and analysis using QuB (SUNY at Buffalo).

## CCc1ccc(NC(=O)CSc2nnc(-c3cccnc3)n2CC)cc1 [VUAA1, 2-((4-ethyl-5-(pyridin-3-yl)-4H-1,2,4-triazol-3-yl)thio)-N-(4-ethylphenyl)acetamide]
AgOrco+AgOR65
  EC50: 37 µM
[1]
  whole-cell current response: did not elicit currents
[2]
  CpA neuron activity: unchanged
[3]
  whole-cell current response: did not respond
